This is an account of results in patent US11952349B2, “Anti-cancer nuclear hormone receptor-targeting compounds” (Nuvation Bio Inc., priority 2019, dated 2024).

For this experiment, the system named is 22Rv1 cells. The experiment can be described thus: Cell viability assay (CellTiterGlo, 6 days) 22Rv1. The note with it: Homo sapiens, 22Rv1, 144 h; Table 7; cell viability, 6 days; read-out: 22RV1. Type of experiment: cell-based. The method, then:
Cell viability assay: LNCap, 22Rv1, and T47D cells were seeded at a density of 1500-2000 cells/well in 96 well plates, and a ‘T0’ (timepoint 0) was included along with the assay plate. The plates were then incubated at 37° C., 5% CO2 in a cell culture incubator overnight. On the next day, the ‘T0’ plate was assayed using CellTiterGlo (Promega, Inc) according to the manufacturer's instructions. The appropriate compounds were diluted in DMSO and added to the assay plate (final DMSO concentration of 0.2%) on the next day. The assay plates were incubated for 6 days at 37° C., 5% CO2. After the incubation period, the plates were assayed using CellTiterGlo (Promega, Inc) according to the manufacturer's instructions and luminescence was read on the EnVision plate reader. Inhibition the tested compounds was determined by the following formula: Inhibition rate (%)=(1−(RLU compound−RLU day0)/(RLU control−RLU day0))*100%. GraphPadPrism was used to analyze the data and determine absolute IC50 values.

`C[C@]12Cc3cn[nH]c3C[C@@H]1CC[C@@H]1[C@@H]2CC[C@]2(C)[C@@H](OCCCCCC(=O)N3CCN(C(=O)c4cc(Cc5n[nH]c(=O)c6ccccc56)ccc4F)CC3)CC[C@@H]12` [Compound 1394, 4-(3-(4-(6-(((1S,3aS,3bR,5aS,10aS,10bS,12aS)-10a,12a-dimethyl-1,2,3,3a,3b,4,5,5a,6,7,10,10a,10b,11,12,12a-hexadecahydrocyclopenta[5,6]naphtho[1,2-f]indazol-1-yl)oxy)hexanoyl)piperazine-1-carbonyl)-4-fluorobenzyl)phthalazin-1(2H)-one]: the IC50 was 100 to 1000 nM. `C[C@]12C[C@H](CCCCCC(=O)N3CCN(C(=O)c4cc(Cc5n[nH]c(=O)c6ccccc56)ccc4F)CC3)C3=C4CCC(=O)C=C4CC[C@H]3[C@@H]1CCC2O` (stereo partly drawn) [Compound 138, 4-(4-fluoro-3-(4-(6-((8S,11S,13S,14S)-17-hydroxy-13-methyl-3-oxo-2,3,6,7,8,11,12,13,14,15,16,17-dodecahydro-1H-cyclopenta[a]phenanthren-11-yl)hexanoyl)piperazine-1-carbonyl)benzyl)phthalazin-1(2H)-one]: the IC50 lay in the range of 100 to 1000 nM. On to `C[C@@]12CCC(=O)C[C@H]1CC[C@H]1[C@H]2CC[C@]2(C)[C@@H]1CC[C@H]2OCCCCCCNC(=O)c1cc(Cc2n[nH]c(=O)c3ccccc23)ccc1F` (stereo in doubt) [Compound 1426, N-(6-((5R,8S,9R,10R,13R,14R,17R)-10,13-dimethyl-3-oxohexadecahydro-1H-cyclopenta[a]phenanthren-17-yloxy)hexyl)-2-fluoro-5-((4-oxo-3,4-dihydrophthalazin-1-yl)methyl)benzamide], for which the IC50 was 1000 to 10000 nM.

As for `Cn1ncnc1C1c2n[nH]c(=O)c3cc(F)cc(c23)N[C@@H]1c1ccc(NC(=O)CCCCCO[C@@H]2CC[C@H]3[C@@H]4CC[C@H]5CCCC[C@]5(C)[C@H]4CC[C@]23C)cc1` (stereo partly drawn) [Compound 1128, 6-((5R,8R,9S,10S,13S,14S,17R)-10,13-dimethylhexadecahydro-1H-cyclopenta[a]phenanthren-17-yloxy)-N-(4-((8S)-5-fluoro-9-(1-methyl-1H-1,2,4-triazol-5-yl)-3-oxo-3,7,8,9-tetrahydro-2H-pyrido[4,3,2-de]phthalazin-8-yl)phenyl)hexanamide], the IC50 fell in the range of 1000 to 10000 nM.
